Assay results: US12102089B2, “Method for inactivating mold spores” (DSM IP ASSETS B.V., priority 2017, dated 2024)

Experiment: LC-MS/MS analysis of natamycin and mycosamine in heated ice tea sample
Format: physicochemical
Conditions: 10 ppm natamycin at t=0, heated at 70° C.
Description: For the analysis of mycosamine at low concentrations (ppb level) a sample preparation is used with a cation exchange SPE material to isolate mycosamine from the sample matrix and/or remove possible interfering impurities therefrom. The analysis was performed on LC-MS/MS on a ZIC-HILIC column. For the identification and (semi) quantification a reference of mycosamine was prepared. The concentration of mycosamine in this reference was determined with ^1H-NMR.

Measured: mycosamine found in sample

C[C@@H](O)[C@@H](O)[C@H](N)[C@H](O)C=O [mycosamine]
2 mg/L: Example 1 ice tea sample (pH 3.15) | Example 2 ice tea sample | Example 3 ice tea sample
